Data as given in ChEMBL document CHEMBL1158745, “Guttiferone I, a new prenylated benzophenone from Garcinia humilis as a liver X receptor ligand” (J Nat Prod, 2005).

Assays:
[1] = biological target: T1, Oxysterols receptor LXR-alpha (Homo sapiens, UniProt Q13133); test: Displacement of [3H2]F3-methylAA from human LXRalpha expressed in Escherichia coli BL21 cells by scintillation proximity assay
T1 sequence (Q13133 whole entry): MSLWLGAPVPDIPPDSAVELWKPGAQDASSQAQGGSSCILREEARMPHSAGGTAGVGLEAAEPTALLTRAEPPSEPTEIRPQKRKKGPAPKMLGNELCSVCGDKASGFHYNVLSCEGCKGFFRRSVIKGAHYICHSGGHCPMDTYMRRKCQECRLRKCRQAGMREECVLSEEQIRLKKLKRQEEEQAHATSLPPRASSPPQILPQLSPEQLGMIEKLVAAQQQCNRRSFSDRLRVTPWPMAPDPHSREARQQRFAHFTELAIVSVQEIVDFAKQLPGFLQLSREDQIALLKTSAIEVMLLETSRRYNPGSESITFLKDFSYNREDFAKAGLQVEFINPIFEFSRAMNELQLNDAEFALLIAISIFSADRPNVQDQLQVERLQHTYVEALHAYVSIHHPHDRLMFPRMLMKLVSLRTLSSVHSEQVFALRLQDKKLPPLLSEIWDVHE

[2] = biological target: T2, Oxysterols receptor LXR-beta (Homo sapiens, UniProt P55055); test: Displacement of [3H2]F3-methylAA from human LXRbeta expressed in Escherichia coli BL21 cells by scintillation proximity assay
T2 sequence (P55055 whole entry): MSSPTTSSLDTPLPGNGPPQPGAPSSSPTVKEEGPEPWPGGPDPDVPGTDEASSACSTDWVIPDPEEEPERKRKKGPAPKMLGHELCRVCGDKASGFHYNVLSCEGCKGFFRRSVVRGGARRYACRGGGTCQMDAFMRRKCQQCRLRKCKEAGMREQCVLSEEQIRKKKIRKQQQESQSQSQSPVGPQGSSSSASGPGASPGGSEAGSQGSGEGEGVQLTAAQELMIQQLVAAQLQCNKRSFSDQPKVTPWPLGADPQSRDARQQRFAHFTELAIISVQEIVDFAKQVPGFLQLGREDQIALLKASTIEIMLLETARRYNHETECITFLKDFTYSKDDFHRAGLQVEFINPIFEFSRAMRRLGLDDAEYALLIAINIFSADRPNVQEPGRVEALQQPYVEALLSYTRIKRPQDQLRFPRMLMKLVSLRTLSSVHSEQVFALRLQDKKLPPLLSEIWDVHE

[3] = biological target: Liver X receptor (LXR alpha AND LXR beta) (Homo sapiens) (UniProt Q13133+P55055); test: Selectivity ratio of IC50 for human LXRbeta to IC50 for human LXRalpha; format: protein assay

In the case of `CC(C)=CCC/C(C)=C/C[C@H]1C[C@]2(CC=C(C)C)C(=O)[C@@](CC=C(C)C)(C(=O)C(C(=O)c3ccc(O)c(O)c3)=C2O)[C@]1(C)CCC=C(C)C` [GUTTIFERONE I], the IC50 [1] is reported as 3.4 µM, the IC50 [2] is reported as > 15 µM and the Ratio IC50 [3] is reported as 5.
